Assay results as given in patent US20170145005A1, “KINASE INHIBITOR” (THE UNIVERSITY OF TOKYO, priority 2014, published 2017).
pIC50: −log10 of the molar value.

What was measured:
PIM-3 kinase = PIM-3 kinase (Homo sapiens, UniProt Q86V86); assay: Measurement of PIM-3 kinase inhibitory activity (fluorescent substrate peptide, capillary electrophoresis); format: biochemical; conditions: 30 μM ATP, 2 hours at room temperature
Procedure: 1.5 μM of fluorescent substrate peptide (FAM-AKRRRLSSLRA-COOH), 30 μM of ATP, and 0.0833 ng/μL of PIM-3 kinase were incubated with a compound for 2 hours at room temperature, and the Pim-3 kinase activity was measured. The reaction was quantified by separating the substrate and phosphorylation reaction product by capillary electrophoresis (using a Perkin-Elmer EZ reader II) based on the difference in their charges. The results are shown below in Tables 1 and 2.

MiaPaca-2 [1] = assay: Growth inhibitory activity on human pancreatic cancer cell lines (Example 2, WST-8); format: cell-based; conditions: cultured for 72 hours, 2000 cells/well
Procedure: (§1) Two thousand cells of human pancreatic cancer cells lines (L3.6pl, MiaPaca-2, PANC-1, PCI35, PCI66) were seeded in a medium volume of 100 μL in each well of a 96-well microtiter plate. The medium was removed after 18 hours, and 100 μL/well of medium containing the test compound was added. Culture was continued for 72 or 96 hours. The medium containing the test compound was removed, and 100 μL/well of medium containing 10% WST-8 (Dojindo Laboratories Cell Counting kit-8) was added. After culturing for one hour, the OD 450 nm absorbance was measured, and the cell growth inhibitory activity was calculated. Furthermore, RPMI-1640 medium (Sigma) was used as the medium with 10% fetal calf serum (Invitrogen), 50 U/mL penicillin G (Sigma), and 50 μg/mL streptomycin (Sigma) added. The cell lines were cultured at 37° C. in a carbon dioxide incubator with a carbon dioxide concentration of 5%.
(§2) Tables 3 and 4 show the results of compound evaluation when cultured for 96 hours.

PANC-1 [2] = assay: as above; format: cell-based; conditions: cultured for 72 hours, 2000 cells/well
Procedure: as §1, §2

L3.6pl [3] = assay: as above; format: cell-based; conditions: cultured for 72 hours, 2000 cells/well
Procedure: as §1, §2

MiaPaca-2 [4] = assay: Growth inhibitory activity on human pancreatic cancer cell lines (Example 4, WST-8); format: cell-based; conditions: MIA PaCa-2, Example 4: 72 hours, 3000 cells/well
Procedure: (§3) Three thousand cells of human pancreatic cancer cell lines (L3.6pl, MiaPaca-2, PANC-1, PCI35, and PCI66) were seeded in a medium volume of 90 μL in each well of a 96-well microtiter plate. After 24 hours, 10 μL/well of medium containing the test compound was added. Culture was continued for 72 hours, and 10 μL/well of WST-8 (Dojindo Laboratories Cell Counting kit-8) was added. After culturing for 2 hours, the OD 450 nm absorbance was measured, and the cell growth inhibitory effect was calculated. The cell lines were cultured in a carbon dioxide incubator with a carbon dioxide concentration of 5%.

PCI66 = assay: as above; format: cell-based; conditions: Example 4: 72 hours, 3000 cells/well
Procedure: as §3

PCI35 = assay: as above; format: cell-based; conditions: Example 4: 72 hours, 3000 cells/well
Procedure: as §3

PANC-1 [5] = assay: as above; format: cell-based; conditions: Example 4: 72 hours, 3000 cells/well
Procedure: as §3

L3.6pl [6] = assay: as above; format: cell-based; conditions: Example 4: 72 hours, 3000 cells/well
Procedure: as §3

SMILES	pIC50 (PIM-3 kinase)	pIC50 (MiaPaca-2 [1]; Homo sapiens, MIA PaCa-2)	pIC50 (PANC-1 [2]; Homo sapiens, PANC-1, 72 h)	pIC50 (L3.6pl [3]; Homo sapiens, L3.6pl, 72 h)	further results
COc1ccc2c(c1CN1CCNCC1)O/C(=C\c1n[nH]c3nc(C)ccc13)C2=O [Compound 7, (Z)-6-methoxy-2-[(6-methyl-1H-pyrazolo[3,4-b]pyridin-3-yl)methylene]-7-(piperazin-1-ylmethyl)benzofuran-3(2H)-one]	8.55	–	–	–	–
COc1ccc2c(c1CN1CCNC[C@H]1C)O/C(=C\c1n[nH]c3ncccc13)C2=O [Compound 8, (R,Z)-2-[(1H-pyrazolo[3,4-b]pyridin-3-yl)methylene]-6-methoxy-7-[(2-methylpiperazin-1-yl)methyl]benzofuran-3(2H)-one]	7.42	5.46	4.92	5.46	–
COc1ccc2c(c1CN1CCNC[C@@H]1C)O/C(=C\c1n[nH]c3ncccc13)C2=O [Compound 9, (S,Z)-2-[(1H-pyrazolo[3,4-b]pyridin-3-yl)methylene]-6-methoxy-7-[(2-methylpiperazin-1-yl)methyl]benzofuran-3(2H)-one]	8.08	5.52	4.92	5.40	–
COc1ccc2c(c1CN1C[C@@H](C)N[C@@H](C)C1)O/C(=C\c1n[nH]c3ncccc13)C2=O [Compound 10, (Z)-2-[(1H-pyrazolo[3,4-b]pyridin-3-yl)methylene]-7-[(cis-3,5-dimethylpiperazin-1-yl)methyl]-6-methoxybenzofuran-3(2H)-one]	7.72	5.52	4.85	5.12	–
COc1ccc2c(c1CN1CCN[C@@H](C)C1)O/C(=C\c1n[nH]c3ncccc13)C2=O [Compound 11, (S,Z)-2-[(1H-pyrazolo[3,4-b]pyridin-3-yl)methylene]-6-methoxy-7-[(3-methylpiperazin-1-yl)methyl]benzofuran-3(2H)-one]	8.85	5.47	5.08	5.46	–
COc1ccc2c(c1CN1CCN[C@H](C)C1)O/C(=C\c1n[nH]c3ncccc13)C2=O [Compound 12, (R,Z)-2-[(1H-pyrazolo[3,4-b]pyridin-3-yl)methylene]-6-methoxy-7-[(3-methylpiperazin-1-yl)methyl]benzofuran-3(2H)-one]	8.10	5.49	5.09	5.46	–
COc1ccc2c(c1CN1[C@H](C)CNC[C@@H]1C)O/C(=C\c1n[nH]c3ncccc13)C2=O [Compound 13, (Z)-2-[(1H-pyrazolo[3,4-b]pyridin-3-yl)methylene]-7-[(cis-2,6-dimethylpiperazin-1-yl)methyl]-6-methoxybenzofuran-3(2H)-one]	6.82	5.62	5.08	5.46	–
COc1ccc2c(c1CN1CC[C@H](N)C1)O/C(=C\c1n[nH]c3ncccc13)C2=O [Compound 14, (S,Z)-2-[(1H-pyrazolo[3,4-b]pyridin-3-yl)methylene]-7-[(3-aminopyrrolidin-1-yl)methyl]-6-methoxybenzofuran-3(2H)-one]	9.00	–	–	–	–
COc1ccc2c(c1CN1CC[C@@H](N)C1)O/C(=C\c1n[nH]c3ncccc13)C2=O [Compound 15, (R,Z)-2-[(1H-pyrazolo[3,4-b]pyridin-3-yl)methylene]-7-[(3-aminopyrrolidin-1-yl)methyl]-6-methoxybenzofuran-3(2H)-one]	8.80	–	–	–	–
COc1ccc2c(c1CC1CCNCC1)O/C(=C\c1n[nH]c3nc(C)ccc13)C2=O [Compound 16, (Z)-6-methoxy-2-[(6-methyl-1H-pyrazolo[3,4-b]pyridin-3-yl)methylene]-7-(piperidin-4-ylmethyl)benzofuran-3(2H)-one]	9.15	–	–	–	–
O=C1/C(=C/c2n[nH]c3ncccc23)Oc2c1ccc(OC(F)F)c2CC1CCNCC1 [Compound 17, (Z)-2-[(1H-pyrazolo[3,4-b]pyridin-3-yl)methylene]-6-(difluoromethoxy)-7-(piperidin-4-ylmethyl)benzofuran-3(2H)-one]	8.66	–	–	–	pIC50 (MiaPaca-2 [4]): 5.49; pIC50 (PCI66): 4.74; pIC50 (PCI35): 5.03; pIC50 (PANC-1 [5]): 5.01; pIC50 (L3.6pl [6]): 5.21
COc1ccc2c(c1CC1CCNCC1F)O/C(=C\c1n[nH]c3ncccc13)C2=O (centres unmarked) [Compound 18, (Z)-2-[(1H-pyrazolo[3,4-b]pyridin-3-yl)methylene]-7-[(3-fluoropiperidin-4-yl)methyl]-6-methoxybenzofuran-3(2H)-one]	9.46	6.66	6.38	6.60	–
COc1ccc2c(c1CC1CCNCC1F)O/C(=C\c1n[nH]c3ncccc13)C2=O (centres unmarked) [Compound 19, (Z)-2-[(1H-pyrazolo[3,4-b]pyridin-3-yl)methylene]-7-[(3-fluoropiperidin-4-yl)methyl]-6-methoxybenzofuran-3(2H)-one]	9.15	–	–	–	pIC50 (MiaPaca-2 [1]): 6.66; pIC50 (PANC-1 [2]): 6.48; pIC50 (L3.6pl [3]): 6.52
CCOc1ccc2c(c1C(C)N1CCNCC1)O/C(=C\c1n[nH]c3ncccc13)C2=O (centres unmarked) [Compound 22, (Z)-2-[(1H-pyrazolo[3,4-b]pyridin-3-yl)methylene]-6-ethoxy-7-[1-(piperazin-1-yl)ethyl]benzofuran-3(2H)-one]	8.89	–	–	–	pIC50 (MiaPaca-2 [4]): 5.89; pIC50 (PCI66): 5.60; pIC50 (PCI35): 5.74; pIC50 (PANC-1 [5]): 5.57; pIC50 (L3.6pl [6]): 5.55
CC(c1c(OCC2CC2)ccc2c1O/C(=C\c1n[nH]c3ncccc13)C2=O)N1CCNCC1 (centres unmarked) [Compound 23, (Z)-2-[(1H-pyrazolo[3,4-b]pyridin-3-yl)methylene]-6-(cyclopropylmethoxy)-7-[1-(piperazin-1-yl)ethyl]benzofuran-3(2H)-one]	9.21	–	–	–	pIC50 (MiaPaca-2 [4]): 5.42; pIC50 (PCI66): 5.38; pIC50 (PCI35): 5.28; pIC50 (PANC-1 [5]): 5.10; pIC50 (L3.6pl [6]): 5.01
C=C(CN1CCNCC1)c1c(OC)ccc2c1O/C(=C\c1n[nH]c3ncccc13)C2=O [Compound 24, (Z)-2-[(1H-pyrazolo[3,4-b]pyridin-3-yl)methylene]-6-methoxy-7-[3-(piperazin-1-yl)prop-1-en-2-yl]benzofuran-3(2H)-one]	7.92	–	–	–	–
COc1ccc2c(c1CN1CC3CCC(C1)N3)O/C(=C\c1n[nH]c3ncccc13)C2=O [Compound 25, (Z)-2-[(1H-pyrazolo[3,4-b]pyridin-3-yl)methylene]-7-[(3,8-diazabicyclo[3.2.1]octan-3-yl)methyl]-6-methoxybenzofuran-3(2H)-one]	9.54	–	–	–	pIC50 (MiaPaca-2 [4]): 5.74; pIC50 (PCI66): 5.44; pIC50 (PCI35): 5.55; pIC50 (PANC-1 [5]): 5.01; pIC50 (L3.6pl [6]): 5.54
CN[C@H]1CCN(Cc2c(OC)ccc3c2O/C(=C\c2n[nH]c4ncccc24)C3=O)C1 [Compound 26, (S,Z)-2-[(1H-pyrazolo[3,4-b]pyridin-3-yl)methylene]-6-methoxy-7-{[3-(methylamino)pyrrolidin-1-yl]methyl}benzofuran-3(2H)-one]	8.96	–	–	–	–
COc1ccc2c(c1C(C)CN1CCNCC1)O/C(=C\c1n[nH]c3ncccc13)C2=O (centres unmarked) [Compound 27, (Z)-2-[(1H-pyrazolo[3,4-b]pyridin-3-yl)methylene]-6-methoxy-7-[1-(piperazin-1-yl)propan-2-yl]benzofuran-3(2H)-one]	8.19	–	–	–	–
O=C1/C(=C/c2n[nH]c3ncccc23)Oc2c1ccc(Cl)c2CC1CCNCC1 [Compound 28, (Z)-2-[(1H-pyrazolo[3,4-b]pyridin-3-yl)methylene]-6-chloro-7-(piperidin-4-ylmethyl)benzofuran-3(2H)-one]	8.89	–	–	–	–
O=C1/C(=C/c2n[nH]c3ncccc23)Oc2c1ccc(F)c2CC1CCNCC1 [Compound 29, (Z)-2-[(1H-pyrazolo[3,4-b]pyridin-3-yl)methylene]-6-fluoro-7-(piperidin-4-ylmethyl)benzofuran-3(2H)-one]	8.35	–	–	–	pIC50 (MiaPaca-2 [4]): 5.46; pIC50 (PCI66): 5.41; pIC50 (PCI35): 5.17; pIC50 (PANC-1 [5]): 5.48; pIC50 (L3.6pl [6]): 5.42
COc1ccc2c(c1CN1CCC[C@@H]1CN)O/C(=C\c1n[nH]c3ncccc13)C2=O [Compound 31, (R,Z)-2-[(1H-pyrazolo[3,4-b]pyridin-3-yl)methylene]-7-{[2-(aminomethyl)pyrrolidin-1-yl]methyl}-6-methoxybenzofuran-3(2H)-one]	9.02	–	–	–	–
